SMILES strings stand for the structures.

A short description of this series: RP, 50 × 2.1 mm, 1.7 µm, 0.5 mL/min, estimated dead time 0.22 min; A: 98% water + 2% acetonitrile + 0.1% formic acid, pH 3; B: 2% water + 98% acetonitrile + 0.1% formic acid, pH 3; gradient (min/%B) 0/0 0.5/0 4/60 8/100 9/100 9.2/0 10/0. The conditions noted are these: stereoisomer not certain.
As for `CC(CCC(=O)O)C1CCC2C3CC(O)C4CC(O)CCC4(C)C3CCC12C` (stereo not given), the LC retention time is 4.78 min.

For `CC(=CCCC(C)C1CCC2C3C(O)CC4CC(O)CCC4(C)C3CCC12C)C(=O)O` (racemic), the LC retention time was 6.87 min. As for `NC(N)=NCCC(=O)O` [3-guanidinopropionic acid], the figure is 0.883 min; as for `CCCCCCCCCCCCCCCCCC(O)CC(=O)O` (stereo not given) [3-hydroxyeicosanoic acid], 7.39 min; as for `C=CC1=C(C)C(=Cc2[nH]c(Cc3[nH]c(C=C4NC(=O)C(C)=C4C=C)c(C)c3CCC(=O)O)c(CCC(=O)O)c2C)NC1=O` [4E,15Z-bilirubin IXa], 7.62 min.

Take `C=CC1=C(C)C(=O)N=C1C=c1[nH]c(=Cc2[nH]c(CC3NC(=O)C(C=C)=C3C)c(C)c2CCC(=O)O)c(CCC(=O)O)c1C` (stereo not given) [15,16-dihydrobiliverdin]: the LC retention time was 7.42 min. For the compound `CCCCCCCCCCCCCC=CC(O)C(COP(=O)(O)O)NC(=O)CCCCCCCCCCC` (stereo not given) [CerP(d18:1/12:0)], the LC retention time was 7.37 min. On to `NC(N)=NCCC[C@H](NCCC(=O)O)C(=O)O` [L-N2-(2-carboxyethyl)arginine], for which the LC retention time is 4.28 min. Take `CCCCCCCCC=CCCCCCCCCCC(=O)OCC(O)COP(=O)([O-])OCC[N+](C)(C)C` (stereo not given) [LysoPC(20:1)]: the LC retention time was 6.88 min.

`CCCCCC=CCC=CCC=CCC=CCCCC(=O)OCC(O)COP(=O)([O-])OCC[N+](C)(C)C` (stereo not given) [LysoPC(20:4)]: the LC retention time was 7.74 min. With `CC(=O)C(CCCCN)NS(=O)(=O)c1ccc(C)cc1` [N-tosyl-L-lysinyl methyl ketone] the figure was 7.42 min. As for `CCCCCCCCCC(=O)O[C@H](CC(=O)[O-])C[N+](C)(C)C` [O-decanoyl-L-carnitine], the figure is 5.71 min; as for `CCCCCC=CCC=CCCCCCCCC(=O)OC(CC(=O)[O-])C[N+](C)(C)C` (stereo not given) [O-linoelaidylcarnitine], 5.98 min. With `CCCCCCCC(=O)O[C@H](CC(=O)[O-])C[N+](C)(C)C` [O-octanoyl-R-carnitine] the figure was 5.12 min. Consider `CCCCCCCCCCCCCCCCOCC(O)COP(=O)([O-])OCC[N+](C)(C)C` (stereo not given) [PC(O-16:0/0:0)], for which the LC retention time was 6.42 min. With `[NH3+]C(Cc1ccccc1)C(=O)NC(Cc1ccccc1)C(=O)[O-]` (stereo not given) [Phe-Phe] the figure was 2.91 min; with `CC(CCC(=O)NCC(=O)O)C1CCC2C3C(O)CC4CC(O)CCC4(C)C3CCC12C` (stereo not given) [glycochenodeoxycholic acid (GCDCA)], 4.79 min. With `CC(CCC(=O)NCC(=O)O)C1CCC2C3C(O)CC4CC(O)CCC4(C)C3CC(O)C12C` (stereo not given) [glycocholic acid (GCA)] the figure was 4.3 min; with `CC(CCC(=O)NCC(=O)O)C1CCC2C3CCC4CC(O)CCC4(C)C3CC(O)C12C` (stereo not given) [glycodeoxycholic acid (GDCA)], 4.28 min. With `CCCCCC=CCC=CCCCCCCCC(=O)O` [octadecadienoic acid] the figure was 7.44 min; with `CCCCCCCCC=CCCCCCCCC(N)=O` [oleamide], 7.16 min; with `CCCCCCCCC=CCCCCCCCC(=O)OC(CC(=O)[O-])C[N+](C)(C)C` (stereo not given) [oleoylcarnitine], 6.24 min.

As to `CCCCCCCCCCCCCCCC(=O)OC(CC(=O)[O-])C[N+](C)(C)C` (stereo not given) [palmitylcarnitine], the LC retention time is 6.15 min. On to `CC(=O)Cc1ccccc1` [phenylmethyl methyl ketone], for which the LC retention time is 3.31 min. With `CC(CCC(=O)NCCS(=O)(=O)O)C1CCC2C3C(O)CC4CC(O)CCC4(C)C3CCC12C` (stereo not given) [taurochenodeoxycholic acid (TCDCA)] the figure was 3.89 min.

(Values after the RepoRT retention time repository (doi:10.1021/pr300673x).)
